Measurements from patent US20260027116A1, “Methods of Treating Chronic Graft-Versus-Host Disease Following Allogeneic Hematopoietic Stem Cell Transplantation” (Kadmon Corporation, LLC, priority 2022, published 2026).

System: chronic graft-versus-host disease (cGVHD)
Experiment: Example 2 phase II randomized study: response per 2014 NIH criteria (best ORR, DOR, TTR, FFS, OS)
Format: in vivo, human
Settings: for ORR / ORR for responses occurring within 6 mo of treatment / ORR for responses occurring within 12 mo of treatment: mITT
Protocol: All responses were assessed by the study site investigators.
Here, we report data from the 12-month analysis.

[1] = responses within 6 mo of treatment, 200 mg daily (n = 66)
[2] = responses within 6 mo of treatment, 200 mg twice daily (n = 66)
[3] = responses within 6 mo of treatment, Total (N = 132)
[4] = responses within 12 mo of treatment, 200 mg daily (n = 66)
[5] = responses within 12 mo of treatment, 200 mg twice daily (n = 66)
[6] = responses within 12 mo of treatment, Total (N = 132)

SMILES: CC(C)NC(=O)COc1cccc(-c2nc(Nc3ccc4[nH]ncc4c3)c3ccccc3n2)c1 [Belumosudil, 2-{3-[4-(1H-indazol-5-ylamino)-2-quinazolinyl]phenoxy}-N-(propan-2-yl) acetamide]
- CR, Esophagus (200 mg BID): 5 (42) n (%)
- CR, Eyes (200 mg BID): 6 (12) n (%)
- CR, Joints and fascia (200 mg BID): 10 (20) n (%)
- CR, Liver (200 mg BID): 2 (50) n (%)
- CR, Lower GI (200 mg BID): 4 (57) n (%)
- CR, Lungs (200 mg BID): 2 (9) n (%)
- CR, Mouth (200 mg BID): 17 (41) n (%)
- CR, Skin (200 mg BID): 10 (18) n (%)
- CR, Upper GI (200 mg BID): 4 (40) n (%)
- ORR, Esophagus (200 mg BID): 5 (42) n (%)
- ORR, Eyes (200 mg BID): 25 (51) n (%)
- ORR, Joints and fascia (200 mg BID): 33 (67) n (%)
- ORR, Liver (200 mg BID): 2 (50) n (%)
- ORR, Lower GI (200 mg BID): 5 (71) n (%)
- ORR, Lungs (200 mg BID): 5 (22) n (%)
- ORR, Mouth (200 mg BID): 24 (57) n (%)
- ORR, Skin (200 mg BID): 23 (42) n (%)
- ORR, Upper GI (200 mg BID): 4 (40) n (%)
- PR, Esophagus (200 mg BID): 0 n (%)
- PR, Eyes (200 mg BID): 19 (39) n (%)
- PR, Joints and fascia (200 mg BID): 23 (47) n (%)
- PR, Liver (200 mg BID): 0 n (%)
- PR, Lower GI (200 mg BID): 1 (14) n (%)
- PR, Lungs (200 mg BID): 3 (13) n (%)
- PR, Mouth (200 mg BID): 7 (17) n (%)
- PR, Skin (200 mg BID): 13 (24) n (%)
- PR, Upper GI (200 mg BID): 0 n (%)
- CR, Esophagus (200 mg QD): 9 (47) n (%)
- CR, Eyes (200 mg QD): 8 (17) n (%)
- CR, Joints and fascia (200 mg QD): 10 (20) n (%)
- CR, Liver (200 mg QD): 2 (22) n (%)
- CR, Lower GI (200 mg QD): 4 (67) n (%)
- CR, Lungs (200 mg QD): 4 (17) n (%)
- CR, Mouth (200 mg QD): 15 (50) n (%)
- CR, Skin (200 mg QD): 8 (15) n (%)
- CR, Upper GI (200 mg QD): 7 (54) n (%)
- ORR, Esophagus (200 mg QD): 9 (47) n (%)
- ORR, Eyes (200 mg QD): 16 (33) n (%)
- ORR, Joints and fascia (200 mg QD): 38 (75) n (%)
- ORR, Liver (200 mg QD): 3 (33) n (%)
- ORR, Lower GI (200 mg QD): 4 (67) n (%)
- ORR, Lungs (200 mg QD): 7 (29) n (%)
- ORR, Mouth (200 mg QD): 16 (53) n (%)
- ORR, Skin (200 mg QD): 18 (33) n (%)
- ORR, Upper GI (200 mg QD): 8 (62) n (%)
- PR, Esophagus (200 mg QD): 0 n (%)
- PR, Eyes (200 mg QD): 8 (17) n (%)
- PR, Joints and fascia (200 mg QD): 28 (55) n (%)
- PR, Liver (200 mg QD): 1 (11) n (%)
- PR, Lower GI (200 mg QD): 0 n (%)
- PR, Lungs (200 mg QD): 3 (13) n (%)
- PR, Mouth (200 mg QD): 1 (3) n (%)
- PR, Skin (200 mg QD): 10 (18) n (%)
- PR, Upper GI (200 mg QD): 1 (8) n (%)
- FFS at 6 mo (95% CI) (200 mg daily (n = 66)): 73 (61-83) %
- FFS at 12 mo (95% CI) (200 mg daily (n = 66)): 57 (44-68) %
- FFS at 6 mo (95% CI) (200 mg twice daily (n = 66)): 76 (63-84) %
- FFS at 12 mo (95% CI) (200 mg twice daily (n = 66)): 56 (43-67) %
- 2-year OS rate (Example 2): 89%
- additional lung CRs based on NIH lung symptom score 1 to 0 (Example 2): 3 subjects
- best ORR in subjects refractory to their last lines of therapy (Example 2): 75%
- initiation of a new systemic cGVHD therapy (failure event) (Example 2): 38%
- lung CR based on normalization of FEV1 (Example 2): 3 subjects
- median FEV1 increase for all subjects achieving lung PR (Example 2): 10%
- median FEV1 increase in lung CR subjects (Example 2): 23%
- nonrelapse mortality (NRM) (Example 2): 7%
- overall median time to response (Example 2): 5 weeks
- relapse (Example 2): 3%
- responses seen after 6 to 12 months of treatment (Example 2): 9%
- skin responders with decrease in body surface area involvement (Example 2): 15 subjects
- skin responders with decrease in sclerotic features (Example 2): 11 subjects
- skin responders with improvement in both body surface area and sclerotic features (Example 2): 13 subjects
- subjects with lung responses (Example 2): 12 subjects
- subjects with skin responses (Example 2): 41 subjects
- best ORR (Example 2, 200 mg daily): 74%
- best ORR (Example 2, 200 mg twice daily): 77%
- overall FFS rate (Example 2, at 6 months): 75%
- overall FFS rate (Example 2, at 12 months): 56%
- ORRs in all subgroups (Example 2, mITT): 61-85%
- best ORR in the esophagus (Example 2, mITT): 45%
- best ORR in the eyes (Example 2, mITT): 42%
- best ORR in the joints/fascia (Example 2, mITT): 71%
- best ORR in the liver (Example 2, mITT): 39%
- best ORR in the lower GI tract (Example 2, mITT): 69%
- best ORR in the lungs (Example 2, mITT): 26%
- best ORR in the mouth (Example 2, mITT): 55%
- best ORR in the skin (Example 2, mITT): 37%
- best ORR in the upper GI tract (Example 2, mITT): 52%
- ORR, subgroup with prior ibrutinib therapy (Example 2, pooled arms): 74%
- ORR, subgroup with prior ruxolitinib therapy (Example 2, pooled arms): 68%
- median DOR (Example 2, responder population): 54 weeks
- CR, Esophagus (Total): 14 (45) n (%)
- CR, Eyes (Total): 14 (14) n (%)
- CR, Joints and fascia (Total): 20 (20) n (%)
- CR, Liver (Total): 4 (31) n (%)
- CR, Lower GI (Total): 8 (62) n (%)
- CR, Lungs (Total): 6 (13) n (%)
- CR, Mouth (Total): 32 (44) n (%)
- CR, Skin (Total): 18 (16) n (%)
- CR, Upper GI (Total): 11 (48) n (%)
- ORR, Esophagus (Total): 14 (45) n (%)
- ORR, Eyes (Total): 41 (42) n (%)
- ORR, Joints and fascia (Total): 71 (71) n (%)
- ORR, Liver (Total): 5 (39) n (%)
- ORR, Lower GI (Total): 9 (69) n (%)
- ORR, Lungs (Total): 12 (26) n (%)
- ORR, Mouth (Total): 40 (56) n (%)
- ORR, Skin (Total): 41 (37) n (%)
- ORR, Upper GI (Total): 12 (52) n (%)
- PR, Esophagus (Total): 0 n (%)
- PR, Eyes (Total): 27 (28) n (%)
- PR, Joints and fascia (Total): 51 (51) n (%)
- PR, Liver (Total): 1 (8) n (%)
- PR, Lower GI (Total): 1 (8) n (%)
- PR, Lungs (Total): 6 (13) n (%)
- PR, Mouth (Total): 8 (11) n (%)
- PR, Skin (Total): 23 (21) n (%)
- PR, Upper GI (Total): 1 (4) n (%)
- FFS at 6 mo (95% CI) (Total (N = 132)): 75 (66-81) %
- FFS at 12 mo (95% CI) (Total (N = 132)): 56 (47-64) %
- ORR (200 mg daily (n = 66)): 49 (74) n (%)
- ORR for responses occurring within 6 mo of treatment (200 mg daily (n = 66)): 47 (71) n (%)
- ORR for responses occurring within 12 mo of treatment (200 mg daily (n = 66)): 49 (74) n (%)
- ORR (200 mg twice daily (n = 66)): 51 (77) n (%)
- ORR for responses occurring within 6 mo of treatment (200 mg twice daily (n = 66)): 48 (73) n (%)
- ORR for responses occurring within 12 mo of treatment (200 mg twice daily (n = 66)): 50 (76) n (%)
- ORR (Total (N = 132)): 100 (76) n (%)
- ORR for responses occurring within 6 mo of treatment (Total (N = 132)): 95 (72) n (%)
- ORR for responses occurring within 12 mo of treatment (Total (N = 132)): 99 (75) n (%)
- CR [1]: 2 (3) n (%)
- PR [1]: 45 (68) n (%)
- CR [2]: 1 (2) n (%)
- PR [2]: 47 (71) n (%)
- CR [3]: 3 (2) n (%)
- PR [3]: 92 (70) n (%)
- CR [4]: 4 (6) n (%)
- PR [4]: 45 (68) n (%)
- CR [5]: 2 (3) n (%)
- PR [5]: 48 (73) n (%)
- CR [6]: 6 (5) n (%)
- PR [6]: 93 (71) n (%)
